Activity calls are given as the source filed them. The calls are words filed in the database; no cut-off is given here. A value given as a limit tells only on which side of the number the result lay.

Test [1] deals with CAL-27. The experiment in a line: Antiproliferative activity against human CAL-27 cells overexpressing HDAC4 assessed as inhibition of cell growth incubated for 72 hrs by MTT assay. Particulars: CAL-27, 72 h. Type of test: functional, cell-based.
Test [2] concerns CAL-27. The experiment in a line: Antiproliferative activity against human CAL-27 cells without HDAC4 expression assessed as inhibition of cell growth incubated for 72 hrs by MTT assay. Type of test: functional, cell-based. Particulars: CAL-27, 72 h.
Test [3] can be described thus: Effect on p21 mRNA expression in human THP-1 cells assessed as fold increase in p21 mRNA expression at 7.9 uM incubated for 24 hrs by RT-PCR analysis. Type of test: functional.
Test [4] deals with THP-1. The experiment in a line: Effect on p21 protein expression in human THP-1 cells assessed as increase in p21 protein expression level at 7.9 uM incubated for 24 hrs by Western blot analysis. Type of test: functional, cell-based.
Test [5] has as its system THP-1. Kind of test: cells. Particulars: Homo sapiens, THP-1, 72 h.
Description: Antiproliferative activity against human THP-1 cells assessed as inhibition of cell growth incubated for 72 hrs by MTT assay
The next test concerns the target Histone deacetylase 2 (Homo sapiens, UniProt Q92769). The experiment in a line: Inhibition of human recombinant HDAC2 using Boc-Lys(Ac)-AMC as substrate preincubated for 5 mins followed by substrate addition and measured after 90 mins by fluorescence based microplate reader analysis.
The target of test [6] is T1, Protein deacetylase HDAC6 (Homo sapiens, UniProt Q9UBN7).
T1 sequence (Q9UBN7 whole entry): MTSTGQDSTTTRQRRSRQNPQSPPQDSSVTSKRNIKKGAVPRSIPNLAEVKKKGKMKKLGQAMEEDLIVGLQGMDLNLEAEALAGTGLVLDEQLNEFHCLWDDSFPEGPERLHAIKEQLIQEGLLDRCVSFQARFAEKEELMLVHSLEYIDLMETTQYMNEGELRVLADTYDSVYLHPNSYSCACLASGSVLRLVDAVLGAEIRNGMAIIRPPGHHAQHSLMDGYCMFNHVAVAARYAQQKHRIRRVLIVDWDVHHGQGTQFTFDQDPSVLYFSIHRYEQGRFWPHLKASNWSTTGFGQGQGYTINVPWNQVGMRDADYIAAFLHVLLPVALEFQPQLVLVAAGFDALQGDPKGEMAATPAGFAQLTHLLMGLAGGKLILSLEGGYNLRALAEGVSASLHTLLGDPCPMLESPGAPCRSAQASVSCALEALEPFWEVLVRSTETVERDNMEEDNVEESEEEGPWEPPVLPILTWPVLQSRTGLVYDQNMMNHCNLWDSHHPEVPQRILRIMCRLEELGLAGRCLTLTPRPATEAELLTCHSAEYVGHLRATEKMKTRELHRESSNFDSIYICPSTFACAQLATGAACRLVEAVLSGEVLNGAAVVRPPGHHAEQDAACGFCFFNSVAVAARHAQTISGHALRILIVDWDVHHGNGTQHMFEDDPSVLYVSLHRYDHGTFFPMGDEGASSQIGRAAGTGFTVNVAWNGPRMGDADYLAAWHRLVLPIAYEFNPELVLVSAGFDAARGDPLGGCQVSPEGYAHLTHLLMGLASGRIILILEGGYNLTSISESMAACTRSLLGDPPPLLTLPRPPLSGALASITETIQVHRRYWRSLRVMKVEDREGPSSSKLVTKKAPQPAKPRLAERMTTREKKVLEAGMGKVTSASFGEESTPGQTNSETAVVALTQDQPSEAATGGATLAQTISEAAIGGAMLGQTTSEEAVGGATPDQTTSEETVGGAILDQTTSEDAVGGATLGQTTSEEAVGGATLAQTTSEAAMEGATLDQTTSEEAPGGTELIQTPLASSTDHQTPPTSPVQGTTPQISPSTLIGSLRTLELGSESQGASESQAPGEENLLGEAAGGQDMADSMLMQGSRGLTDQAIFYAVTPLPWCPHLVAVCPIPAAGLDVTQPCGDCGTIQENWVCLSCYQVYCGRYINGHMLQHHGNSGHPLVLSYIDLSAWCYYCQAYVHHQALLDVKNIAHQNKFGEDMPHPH
The experiment in a line: Inhibition of human recombinant HDAC6 using Boc-Lys(Ac)-AMC as substrate preincubated for 5 mins followed by substrate addition and measured after 90 mins by fluorescence based microplate reader analysis.

The target of a further test is T2, Histone deacetylase 8 (Homo sapiens, UniProt Q9BY41).
T2 sequence (Q9BY41 whole entry): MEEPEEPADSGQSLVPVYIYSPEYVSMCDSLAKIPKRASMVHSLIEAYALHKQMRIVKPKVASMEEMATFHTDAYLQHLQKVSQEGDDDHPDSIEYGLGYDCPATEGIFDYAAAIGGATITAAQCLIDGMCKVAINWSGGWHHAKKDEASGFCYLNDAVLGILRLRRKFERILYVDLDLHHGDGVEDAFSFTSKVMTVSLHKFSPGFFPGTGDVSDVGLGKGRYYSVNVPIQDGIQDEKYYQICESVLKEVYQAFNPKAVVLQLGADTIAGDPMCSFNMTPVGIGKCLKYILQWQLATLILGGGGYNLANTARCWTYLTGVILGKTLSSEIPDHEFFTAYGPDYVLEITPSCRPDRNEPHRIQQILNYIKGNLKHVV
Kind of test: Inhibition of human recombinant HDAC8 using Boc-Lys-(Tfa)-AMC as substrate preincubated for 5 mins followed by substrate addition and measured after 90 mins by fluorescence based microplate reader analysis.

The subject of test [7] is THP-1. The experiment in a line: Inhibition of Class IIa/8 HDAC in human THP-1 cells at 100 uM preincubated for 18 hrs followed by substrate addition and measured after 3 hrs by fluorescence based microplate reader assay relative to control. Type of test: cell-based. Particulars: time 21.0 hrs, values are per cent of control.
The subject of test [8] is THP-1. The experiment in a line: Inhibition of Class I/IIb HDAC in human THP-1 cells at 100 uM preincubated for 18 hrs followed by substrate addition and measured after 3 hrs by fluorescence based microplate reader assay relative to control. Type of test: cell-based. Particulars: time 21.0 hrs.
Test [9] is described as follows: Inhibition of Class I/IIb HDAC in human THP-1 cells preincubated for 18 hrs followed by substrate addition and measured after 3 hrs by fluorescence based microplate reader assay. Type of test: cell-based.
A short description of test [10]: Inhibition of Class IIa/8 HDAC in human THP-1 cells preincubated for 18 hrs followed by substrate addition and measured after 3 hrs by fluorescence based microplate reader assay. The format is cell-based.
In a further test the target is Histone deacetylase 3 (Homo sapiens, UniProt O15379). The experiment in a line: Inhibition of HDAC3 (unknown origin).
A further test concerns the target Histone deacetylase 5 (Homo sapiens, UniProt Q9UQL6). Kind of test: Inhibition of HDAC5 (unknown origin).
The target in the next test is T3, Histone deacetylase 11 (Homo sapiens, UniProt Q96DB2).
T3 sequence (Q96DB2 whole entry): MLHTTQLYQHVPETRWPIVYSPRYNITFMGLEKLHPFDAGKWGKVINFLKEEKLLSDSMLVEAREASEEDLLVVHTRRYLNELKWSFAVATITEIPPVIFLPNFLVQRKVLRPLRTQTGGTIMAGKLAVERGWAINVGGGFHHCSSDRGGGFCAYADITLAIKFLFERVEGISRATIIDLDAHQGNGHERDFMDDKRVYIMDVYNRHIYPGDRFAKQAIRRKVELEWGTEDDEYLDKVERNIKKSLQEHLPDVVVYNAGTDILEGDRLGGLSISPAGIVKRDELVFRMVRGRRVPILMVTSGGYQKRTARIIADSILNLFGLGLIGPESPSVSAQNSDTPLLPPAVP
Kind of test: Inhibition of HDAC11 (unknown origin).

Test [11] relates to THP-1. Kind of test: Antiproliferative activity against human THP-1 cells assessed as reduction in cell viability at 100 uM incubated for 72 hrs by MTT assay relative to control. The format is functional.
In test [12] the test system is THP-1. The experiment in a line: Induction of apoptosis in human THP-1 cells assessed as subG1 population at 5 uM incubated for 48 hrs by Propidium iodide staining based flow cytometric analysis. Type of test: functional, cell-based.
For test [13], the system named is THP-1. Kind of test: Synergistic induction of apoptosis in human THP-1 cells assessed as increase in subG1 population at 5 uM incubated for 48 hrs in the presence of 7.9 nM bortezomib by Propidium iodide staining based flow cytometric analysis. The format is functional, cell-based.
Test [14] has as its system THP-1. Kind of test: Induction of apoptosis in human THP-1 cells assessed as caspase3/7 activation at 5 uM incubated for 48 hrs by Hoechst 33342 staining based assay. Type of test: functional, cell-based.
Test [15] deals with THP-1. Kind of test: Synergistic induction of apoptosis in human THP-1 cells assessed as increase in caspase3/7 activation at 5 uM incubated for 48 hrs in the presence of 7.9 nM bortezomib by Hoechst 33342 staining based assay. Type of test: functional, cell-based.
Test [16] concerns CAL-27. The experiment in a line: Antitumor activity against human CAL-27 cells overexpressing HDAC4 implanted in chick embryo chorio allantoic membrane assessed as reduction in cell proliferation at 5 uM. Type of test: functional, cell-based.
For test [17], the system named is CAL-27. Kind of test: Antitumor activity against human CAL-27 cells without HDAC4 expression xenografted in chick embryo chorio allantoic membrane assessed as reduction in cell proliferation at 5 uM. Type of test: functional, cell-based.
Test [18] relates to THP-1. The experiment in a line: Synergistic effect on p21 protein expression in human THP-1 cells assessed as increase in p21 protein expression level at 5 uM incubated for 24 hrs in the presence of 7.9 nM bortezomib by Western blot analysis. The format is functional, cell-based.
Test [19] concerns THP-1. Kind of test: Effect on p21 protein expression in human THP-1 cells assessed as increase in p21 protein expression level at 5 uM incubated for 24 hrs by Western blot analysis. The format is functional, cell-based.
The target of the next test is Histone deacetylase 4 (Homo sapiens, UniProt P56524). The experiment in a line: Inhibition of GST-tagged HDAC4 (unknown origin).
The target in the next test is Histone deacetylase 1 (Homo sapiens, UniProt Q13547). The experiment in a line: Inhibition of HDAC1 (unknown origin).
Test [20] deals with THP-1. Kind of test: Induction of apoptosis in human THP-1 cells assessed as subG1 population at 5.7 uM incubated for 48 hrs by Propidium iodide staining based flow cytometric analysis. The format is functional, cell-based.
Test [21] deals with THP-1. The experiment in a line: Synergistic induction of apoptosis in human THP-1 cells assessed as increase in subG1 population at 5.7 uM incubated for 48 hrs in the presence of 7.9 nM bortezomib by Propidium iodide staining based flow cytometric analysis. The format is functional, cell-based.
Test [22] relates to THP-1. Kind of test: Induction of apoptosis in human THP-1 cells assessed as caspase3/7 activation at 5.7 uM incubated for 48 hrs by Hoechst 33342 staining based assay. Type of test: functional, cell-based.
The test system of test [23] is THP-1. The experiment in a line: Synergistic induction of apoptosis in human THP-1 cells assessed as increase in caspase3/7 activation at 5.7 uM incubated for 48 hrs in the presence of 7.9 nM bortezomib by Hoechst 33342 staining based assay. Type of test: functional, cell-based.

Chain of Histone deacetylase 3 (O15379 whole entry): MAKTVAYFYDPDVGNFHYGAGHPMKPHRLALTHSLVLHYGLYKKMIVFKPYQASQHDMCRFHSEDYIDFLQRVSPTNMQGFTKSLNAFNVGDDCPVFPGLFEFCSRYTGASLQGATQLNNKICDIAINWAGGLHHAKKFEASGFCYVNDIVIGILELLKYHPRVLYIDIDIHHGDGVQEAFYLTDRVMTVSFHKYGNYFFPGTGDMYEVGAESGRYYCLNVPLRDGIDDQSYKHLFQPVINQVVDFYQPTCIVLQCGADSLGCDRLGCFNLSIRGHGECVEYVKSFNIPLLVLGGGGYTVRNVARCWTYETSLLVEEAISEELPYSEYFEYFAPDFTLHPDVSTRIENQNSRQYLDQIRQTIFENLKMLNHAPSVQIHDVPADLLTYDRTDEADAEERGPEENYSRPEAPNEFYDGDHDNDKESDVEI
Chain of Histone deacetylase 5 (Q9UQL6 whole entry): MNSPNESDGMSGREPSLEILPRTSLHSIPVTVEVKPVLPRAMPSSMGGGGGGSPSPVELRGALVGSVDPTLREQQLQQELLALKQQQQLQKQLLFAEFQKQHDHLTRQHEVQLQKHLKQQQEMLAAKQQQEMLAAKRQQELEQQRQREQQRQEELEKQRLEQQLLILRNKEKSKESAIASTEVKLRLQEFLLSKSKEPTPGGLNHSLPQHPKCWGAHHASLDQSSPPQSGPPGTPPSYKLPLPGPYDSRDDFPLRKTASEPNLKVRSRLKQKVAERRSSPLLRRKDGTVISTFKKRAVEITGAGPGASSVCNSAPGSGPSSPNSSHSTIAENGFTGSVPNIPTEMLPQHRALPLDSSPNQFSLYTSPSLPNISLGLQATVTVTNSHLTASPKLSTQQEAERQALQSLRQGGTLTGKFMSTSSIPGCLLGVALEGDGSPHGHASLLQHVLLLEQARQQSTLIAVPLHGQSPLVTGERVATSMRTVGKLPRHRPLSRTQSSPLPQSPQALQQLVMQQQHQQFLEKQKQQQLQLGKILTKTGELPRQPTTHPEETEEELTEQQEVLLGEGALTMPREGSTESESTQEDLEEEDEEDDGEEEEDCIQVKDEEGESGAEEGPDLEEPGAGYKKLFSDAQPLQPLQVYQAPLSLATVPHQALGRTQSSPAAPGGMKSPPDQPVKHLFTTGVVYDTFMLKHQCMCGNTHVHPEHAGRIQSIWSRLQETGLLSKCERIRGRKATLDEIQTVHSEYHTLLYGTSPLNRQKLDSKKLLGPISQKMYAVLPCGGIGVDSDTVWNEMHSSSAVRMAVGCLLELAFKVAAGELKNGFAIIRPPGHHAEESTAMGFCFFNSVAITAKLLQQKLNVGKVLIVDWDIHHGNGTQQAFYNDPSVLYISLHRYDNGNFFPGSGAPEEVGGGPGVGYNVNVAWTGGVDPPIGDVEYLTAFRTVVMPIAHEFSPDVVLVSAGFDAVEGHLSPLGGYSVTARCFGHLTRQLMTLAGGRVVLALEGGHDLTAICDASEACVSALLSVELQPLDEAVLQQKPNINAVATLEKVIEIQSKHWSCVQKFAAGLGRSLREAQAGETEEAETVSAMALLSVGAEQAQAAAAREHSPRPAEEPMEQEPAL
Chain of Histone deacetylase 1 (Q13547 whole entry): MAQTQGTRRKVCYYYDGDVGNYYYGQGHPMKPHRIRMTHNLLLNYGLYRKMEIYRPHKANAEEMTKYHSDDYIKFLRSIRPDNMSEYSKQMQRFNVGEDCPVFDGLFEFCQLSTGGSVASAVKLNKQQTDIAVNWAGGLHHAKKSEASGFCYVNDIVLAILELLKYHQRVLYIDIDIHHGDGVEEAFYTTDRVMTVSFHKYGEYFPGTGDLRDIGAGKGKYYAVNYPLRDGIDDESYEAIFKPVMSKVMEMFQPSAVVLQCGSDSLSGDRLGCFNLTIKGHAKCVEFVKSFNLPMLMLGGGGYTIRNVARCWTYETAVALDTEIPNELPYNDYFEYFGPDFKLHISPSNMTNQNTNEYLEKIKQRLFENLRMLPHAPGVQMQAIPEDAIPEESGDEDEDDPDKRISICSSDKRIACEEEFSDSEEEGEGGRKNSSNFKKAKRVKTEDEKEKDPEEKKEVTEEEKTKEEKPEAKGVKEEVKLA
Chain of Histone deacetylase 2 (Q92769 whole entry): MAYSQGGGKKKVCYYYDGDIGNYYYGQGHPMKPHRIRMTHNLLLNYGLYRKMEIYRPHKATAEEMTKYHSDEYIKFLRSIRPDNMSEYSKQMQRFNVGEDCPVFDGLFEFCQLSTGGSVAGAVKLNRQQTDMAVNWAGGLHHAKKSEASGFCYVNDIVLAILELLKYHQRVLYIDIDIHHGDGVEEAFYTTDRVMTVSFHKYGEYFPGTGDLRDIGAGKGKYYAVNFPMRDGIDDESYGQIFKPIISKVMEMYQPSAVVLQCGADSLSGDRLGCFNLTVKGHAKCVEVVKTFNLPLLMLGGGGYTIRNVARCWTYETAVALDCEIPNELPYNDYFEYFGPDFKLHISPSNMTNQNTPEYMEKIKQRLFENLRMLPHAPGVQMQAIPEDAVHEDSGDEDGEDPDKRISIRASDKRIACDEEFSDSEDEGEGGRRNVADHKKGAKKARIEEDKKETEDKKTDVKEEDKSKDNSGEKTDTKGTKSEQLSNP
Chain of Histone deacetylase 4 (P56524 whole entry): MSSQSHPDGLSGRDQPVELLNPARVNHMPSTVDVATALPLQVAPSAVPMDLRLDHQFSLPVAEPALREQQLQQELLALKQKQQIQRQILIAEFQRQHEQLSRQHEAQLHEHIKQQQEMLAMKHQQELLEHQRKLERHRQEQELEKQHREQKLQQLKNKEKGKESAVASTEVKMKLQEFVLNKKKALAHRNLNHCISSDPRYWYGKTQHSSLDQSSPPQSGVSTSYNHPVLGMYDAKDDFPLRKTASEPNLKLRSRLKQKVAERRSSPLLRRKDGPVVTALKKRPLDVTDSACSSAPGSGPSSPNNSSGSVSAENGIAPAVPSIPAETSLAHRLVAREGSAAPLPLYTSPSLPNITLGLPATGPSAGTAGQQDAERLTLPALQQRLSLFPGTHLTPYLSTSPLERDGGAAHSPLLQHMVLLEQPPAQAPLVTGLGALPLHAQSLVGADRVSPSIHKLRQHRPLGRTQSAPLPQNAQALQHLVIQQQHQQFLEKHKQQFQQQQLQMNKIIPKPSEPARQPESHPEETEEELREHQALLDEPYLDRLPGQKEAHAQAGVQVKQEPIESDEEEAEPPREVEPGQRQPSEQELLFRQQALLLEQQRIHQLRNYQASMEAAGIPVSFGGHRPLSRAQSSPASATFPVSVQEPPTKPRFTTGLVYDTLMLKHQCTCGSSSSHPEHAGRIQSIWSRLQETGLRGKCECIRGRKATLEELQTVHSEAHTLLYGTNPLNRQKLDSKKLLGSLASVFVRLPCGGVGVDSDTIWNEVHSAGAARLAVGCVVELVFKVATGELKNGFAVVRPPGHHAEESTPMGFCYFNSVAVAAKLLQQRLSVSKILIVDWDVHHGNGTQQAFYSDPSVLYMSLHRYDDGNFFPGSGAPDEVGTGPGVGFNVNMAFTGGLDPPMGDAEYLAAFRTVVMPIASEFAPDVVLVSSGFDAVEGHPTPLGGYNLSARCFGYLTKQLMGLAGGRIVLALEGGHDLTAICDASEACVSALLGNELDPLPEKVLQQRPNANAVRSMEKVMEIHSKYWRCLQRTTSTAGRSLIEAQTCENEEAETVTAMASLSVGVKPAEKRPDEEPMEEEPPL

Turning to `CC(C)C[C@H](NC(=O)[C@H](Cc1ccccc1)NC(=O)c1cnccn1)B(O)O` [BORTEZOMIB], the IC50 in the test on CAL-27 [1] worked out at 4.73 µM; in the test on CAL-27 [2] it was 7.6 µM; with THP-1 [5] it was 0.00628 µM. In addition, the “fold change (FC)” value in test [3] is recorded as 2.5. Also, in the test with THP-1 [4], the outcome was Active.

Take `CCN(CC)CCNC(=O)c1ccc(-c2noc(C(F)(F)F)n2)cc1`: the IC50 at Histone deacetylase 2 came out at 6.13 µM; in test [6], 5.79 µM; on Histone deacetylase 8, 4.26 µM; in [9] it was 10.9 µM; in test [10], 0.077 µM; against Histone deacetylase 3, 3.82 µM. The IC50 came to 0.019 µM against Histone deacetylase 5; 66 µM on Histone deacetylase 11; 8.63 µM in the test with CAL-27 [1]; 22.5 µM with CAL-27 [2]; 0.017 µM against Histone deacetylase 4; 9.24 µM in the test with THP-1 [5]. Besides, in the test with THP-1 [7], the residual activity was 100%. The inhibition with THP-1 [8] is 93%. In addition, the Activity in the test with THP-1 [11] worked out at 80%. Also, the result in the test with THP-1 [12] and with THP-1 [14] was inactive. In addition, the outcome in the test with THP-1 [13], in the test on THP-1 [15], with CAL-27 [16], in the test with CAL-27 [17], in the test on THP-1 [18] and in the test on THP-1 [19] was Active.

In the case of `O=C(NOCCN1CCCCC1)c1ccc(-c2noc(C(F)(F)F)n2)cc1`, the residual activity in the test on THP-1 [7] is 101%. In addition, in the test with THP-1 [8], the inhibition is 70%. Moreover, the IC50 in test [9] was 64.2 µM; in [10], 0.59 µM; against Histone deacetylase 1, 20.7 µM; against Histone deacetylase 3, 15 µM; on Histone deacetylase 5 it was 0.268 µM; against Histone deacetylase 11 it was above 100 µM. The concentration for half-maximal inhibition (IC50) in the test on CAL-27 [1] was 69.8 µM; in the test on CAL-27 [2], 77.7 µM; in the test on THP-1 [5], around 100 µM. Also, the Activity in the test on THP-1 [11] is 45%. The outcome in the test on THP-1 [20] and in the test with THP-1 [22] was inactive. The outcome with THP-1 [21] and in the test with THP-1 [23] was Active.

For the compound `O=C(NCC1(c2nc(-c3ccccc3)cs2)CCOCC1)c1cccc(-c2noc(C(F)(F)F)n2)c1`, the Activity in the test on THP-1 [11] stood at 100%. Further, the result with THP-1 [12] and in the test with THP-1 [14] was inactive. Moreover, the result in the test on THP-1 [13], in the test on THP-1 [15], in the test with THP-1 [18] and in the test with THP-1 [19] was Active.

These data come from ChEMBL document CHEMBL5537119 (Eur J Med Chem, 2024).
